Source: patent US10874683B2, “N4-hydroxycytidine and derivatives and anti-viral uses related thereto” (Emory University, priority 2016, dated 2020)

What was measured:
[1] = Cytotoxicity in Vero cells (ZIKV table); conditions: African green monkey
ZIKV = ZIKV antiviral assay; format: cell-based; conditions: Zika virus, read-out: ZIKV (EC50 μM)

SMILES: O=c1nc(NO)ccn1[C@@H]1O[C@H](CO)[C@H](O)C1O (some centres unmarked) [drawing 106]
- CC50 [1]: 50.4 µM
- EC50 (ZIKV): 4.02 µM
